Reference: patent publication US20080076711A1, “Therapeutic agents for osteopenia” (Chugai Seiyaku Kabushiki Kaisha, priority 2001, published 2008)

How the values were obtained:
[1] = test system: OPN knockout (OPN-KO) mice; test: Determination of cancellous bone mass (BV/TV) after PTH treatment, OPN-KO mice; type: in vivo, mouse; conditions: PTH(+) group, 80 μg/kg s.c., 4 weeks, five days a week, mean ± standard error
Method: Sagittal sections were prepared from the metaphyseal region of femur and tomographed using an X-ray microtomograph Musashi (Nittetsu-ELEX, Osaka, Japan). A Luzex-F automated Image analysis system (Nireco, Tokyo, Japan) was then used for analysis of the image data from a 1.47 mm^2 square area (0.7 mm×2.1 mm) located 0.2 mm apart from the growth plate of the distal end of femur to obtain BV/TV values.
BV/TV (bone volume/total tissue volume) denotes the unit bone mass (%), i.e., the percentage of the total trabecular volume in the total tissue volume. Namely, an increase in BV/TV means an increase in calcified bone.
(§1) To create an animal model in which the in vivo effects of OPN were inhibited, strain 129 female mice at 7 weeks of age were modified into knockout mice deficient in the OPN gene (OPN-KO mice), as described in Rittling et al. J. Bone Miner. Res., 13: 1101-1111, 1998. These mice were singly used for PTH treatment test. They were divided into groups of 6 mice each.
(§2) Recombinant human PTH(1-34) (Bachem, Torrance, Calif.) was dissolved in acidified physiological saline supplemented with 0.1% bovine serum albumin (Sigma Chemical Co.-Aldrich, St. Louis, Mo.). The OPN-KO mice were subcutaneously administered with 80 μg/kg of body weight human PTH(1-34) for 4 weeks on a five-days-a-week basis. Mice in the control group were administered with physiological saline alone.

[2] = test system: wild-type strain 129 female mice; test: Determination of cortical bone thickness and area after PTH treatment, wild-type mice; type: in vivo, mouse; conditions: WT mice, PTH(+) group, 80 μg/kg s.c., 4 weeks
Method: Horizontal sections were prepared from the femoral mid-diaphysis and tomographed using an X-ray microtomograph Musashi (Nittetsu-ELEX, Osaka, Japan). A Luzex-F automated image analysis system (Nireco, Tokyo, Japan) was then used for analysis of the image data to determine the thickness and area of cortical bone. The thickness was evaluated at the mean value averaged over 8 measurements every 45°. Recombinant human PTH(1-34) (Bachem, Torrance, Calif.) was dissolved in acidified physiological saline supplemented with 0.1% bovine serum albumin (Sigma Chemical Co.-Aldrich, St. Louis, Mo.). The OPN-KO mice were subcutaneously administered with 80 μg/kg of body weight human PTH(1-34) for 4 weeks on a five-days-a-week basis. Mice in the control group were administered with physiological saline alone. The effect of PTH on bone metabolism was also examined in the same manner as shown in Example 1, using wild-type strain 129 female mice (7 weeks of age). These mice were divided into groups of 6 mice each.

[3] = test system: OPN knockout (OPN-KO) mice; test: BFR and MAR in cancellous bone (distal end of femur) after PTH treatment, OPN-KO mice; type: in vivo, mouse
Method: BFR denotes bone formation rate per unit trabecular area (μm^3/μm^2/day).
MAR denotes the rate of increase in the distance between labeled calcified bands (μm/day).
In the case of cancellous bone, decalcified sagittal sections were prepared from the metaphyseal region and analyzed for BFR and MAR in a 1.4 mm^2 square area located 0.2 mm apart from the growth plate of the distal end of femur. Labeling was accomplished by subcutaneous administration of xylenol orange (100 mg/kg of body weight) 4 days before and calcein 2 days before sampling.
as §1, §2

[4] = test system: OPN knockout (OPN-KO) mice; test: Determination of TRAP-positive cells (osteoclasts) after PTH treatment, OPN-KO mice; type: in vivo, mouse; conditions: PTH(+) group, 80 μg/kg s.c., 4 weeks
Method: After treatment with PTH, forefoot bone was excised from each animal. Each bone was rinsed with PBS, fixed for 7 days in 4% paraformaldehyde acid and decalcified for 3 days in 10% EDTA (pH 7.4), followed by dehydration and embedding in paraffin. Serial sections of 7 μm thickness were prepared from paraffin blocks and stained to measure TRAP (tartrate resistant acid phosphatase) activity, with Alcian blue for counter-staining. Among TRAP-positive cells attached to cancellous bone, those having at least three nuclei were counted using 15 serial sections of 7 μm thickness prepared from each bone. Each of the 15 sections was taken at five-section intervals from a total of 75 sections per bone. The number of multinucleated TRAP-positive cells in all 15 sections was summed to give the total number of osteoclasts per unit trabecular perimeter.
as §1
Recombinant human PTH(1-34) (Bachem, Torrance, Calif.) was dissolved in acidified physiological saline supplemented with 0.1% bovine serum albumin (Sigma Chemical Co.-Aldrich, St. Louis, Mo.). […]

[5] = test system: OPN knockout (OPN-KO) mice; test: Analysis of urinary deoxypyridinoline (Dpyr) after PTH treatment, OPN-KO mice; type: in vivo, mouse
Method: At 26 days after treatment with PTH, a 24-hour urine sample was collected from each mouse (10 samples per group). As a marker of bone metabolism, the level of urinary deoxypyridinoline (Dpyr) was measured for each sample using an ELISA kit (Metra Biosystems, San Diego, Calif.) in accordance with the manufacturer's protocol.
as §1, §2

[6] = test system: wild-type strain 129 female mice; test: Determination of cancellous bone mass (BV/TV) after PTH treatment, wild-type mice; type: in vivo, mouse; conditions: WT mice, PTH(+) group, 80 μg/kg s.c., 4 weeks, five days a week
Method: Sagittal sections were prepared from the metaphyseal region of femur and tomographed using an X-ray microtomograph Musashi (Nittetsu-ELEX, Osaka, Japan). A Luzex-F automated Image analysis system (Nireco, Tokyo, Japan) was then used for analysis of the image data from a 1.47 mm^2 square area (0.7 mm×2.1 mm) located 0.2 mm apart from the growth plate of the distal end of femur to obtain BV/TV values. BV/TV (bone volume/total tissue volume) denotes the unit bone mass (%), i.e., the percentage of the total trabecular volume in the total tissue volume. Namely, an increase in BV/TV means an increase in calcified bone. Recombinant human PTH(1-34) (Bachem, Torrance, Calif.) was dissolved in acidified physiological saline supplemented with 0.1% bovine serum albumin (Sigma Chemical Co.-Aldrich, St. Louis, Mo.). The OPN-KO mice were subcutaneously administered with 80 μg/kg of body weight human PTH(1-34) for 4 weeks on a five-days-a-week basis. Mice in the control group were administered with physiological saline alone. The effect of PTH on bone metabolism was also examined in the same manner as shown in Example 1, using wild-type strain 129 female mice (7 weeks of age). These mice were divided into groups of 6 mice each.

[7] = test system: osteoporosis patients; conditions: 21 patients, once-daily subcutaneous injections for 6 to 24 months; cited from earlier work
[8] = OPN-KO mice, PTH(+) group, 80 μg/kg s.c., 4 weeks, distal end of femur
[9] = OPN-KO mice, PTH(+) vs PTH(−) group, p<0.05
[10] = cancellous bone, OPN-KO vs WT mice, p<0.05

Substance: human PTH(1-34)
- cancellous bone mass BV/TV [1]: 24.41±2.85%
- area of cortical bone [2]: 0.69±0.03 mm^2
- thickness of cortical bone [2]: 0.20±0.01 mm
- BFR in cancellous bone [3, 8]: 2.68±0.34 μm^3/μm^2/day
- MAR in cancellous bone [3, 8]: 6.21±1.11 μm/day
- fold increase in cancellous BFR by PTH treatment [3, 9]: ~2.1 fold
- fold increase in cancellous MAR by PTH treatment [3, 9]: ~1.7 fold
- elevation in the magnitude of PTH-induced increase in BFR caused by lack of OPN [3, 10]: ~1.3 fold
- elevation in the magnitude of PTH-induced increase in MAR caused by lack of OPN [3, 10]: about 1.4 fold
- number of osteoclasts per unit trabecular perimeter of cancellous bone [4]: 7.6±1.0 cells/mm
- urinary Dpyr level ([5]; PTH(+) group, 24-hour urine at 26 days): 34.67±4.52 nM/mM Cr
- fold increase in systemic bone resorption (urinary Dpyr) by PTH treatment ([5]; PTH(+) vs PTH(−) group, p<0.05): ~1.2 fold
- cancellous bone mass BV/TV [6]: 21.17±2.68%
- calcium balance [7]: no improvement in calcium balance
- cancellous bone mass [7]: increased cancellous bone mass
- cortical bone mass [7]: reduced cortical bone mass
